The record followed here is patent US20250101028A1, “HETEROCYCLIC COMPOUNDS, COMPOSITIONS THEREOF, AND METHODS OF TREATMENT THEREWITH” (BeiGene, Ltd., priority 2022, published 2025).

The assay has as its target T1, GST-tagged GDP-loaded KRAS G12V (amino acids 1-169) (Homo sapiens, UniProt P01116, G12V).
T1 construct: GST-tagged GDP-loaded KRAS G12V (amino acids 1-169); made in house; host or cells: E. coli
The assay can be described thus: KRAS G12V probe displacement assay (TR-FRET). The format is binding. As to conditions: displacement of biotinylated probe 2 from GDP-loaded KRAS G12V. The procedure, abridged:
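GST-tagged GDP-loaded KRAS 1-169 (WT 3 nM; G12V 2 nM final) preincubated 1 h at 24 °C with serially diluted compound in HEPES pH 7.5 buffer, then biotinylated probe added (probe 1 60 nM for WT; probe 2 2.5 nM for G12V), 1 h. Anti-GST-Tb/streptavidin-XL665 TR-FRET 665/620 ratio; IC50 by four-parameter fit.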
For orientation: TR-FRET usually uses a lanthanide donor and a delayed reading to cut background.

T1 sequence (P01116 1-169 isoform P01116-2 G12V): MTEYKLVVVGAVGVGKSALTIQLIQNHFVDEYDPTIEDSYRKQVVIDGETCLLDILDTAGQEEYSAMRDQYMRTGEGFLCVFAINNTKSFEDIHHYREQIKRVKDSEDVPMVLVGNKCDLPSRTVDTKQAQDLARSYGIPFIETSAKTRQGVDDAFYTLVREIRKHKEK

In general, IC50 refers to the midpoint of a concentration-inhibition curve. Low readings indicate inhibition by little substance, high ones a need for much substance. Consider `Nc1nc2c(-c3c(C(F)(F)F)cc4c(N5CCC6(CCNC6=O)CC5)nc(OC[C@@]56CCCN5C[C@H](F)C6)nc4c3F)ccc(F)c2s1` [Example 95, 8-(7-(2-amino-7-fluorobenzo[d]thiazol-4-yl)-8-fluoro-2-(((2R,7aS)-2-fluorotetrahydro-1H-pyrrolizin-7a(5H)-yl)methoxy)-6-(trifluoromethyl)quinazolin-4-yl)-2,8-diazaspiro[4.5]decan-1-one], for which the IC50 was found to be 2.7 nM. In other words, the single-digit nanomolar range.

The compound `Nc1nc2c(-c3c(C(F)(F)F)cc4c(NC56CC(C5)C6)nc(OC[C@@]56CCCN5C[C@H](F)C6)nc4c3F)ccc(F)c2s1` [Example 24, 4-(4-(bicyclo [1.1.1]pentan-1-ylamino)-8-fluoro-2-(((2R,7aS)-2-fluorotetrahydro-1H-pyrrolizin-7a(5H)-yl)methoxy)-6-(trifluoromethyl)quinazolin-7-yl)-7-fluorobenzo[d]thiazol-2-amine] registered an IC50 of 24 nM.

`CC1CCN1c1nc(OC[C@@]23CCCN2C[C@H](F)C3)nc2c(F)c(-c3ccc(F)c4sc(N)nc34)c(C(F)(F)F)cc12` (stereo partly shown) [Example 35] returned a half-inhibitory concentration (IC50) of 30 nM.

With `Nc1nc2c(-c3c(Cl)cc4c(NC56CC(C5)C6)nc(OC[C@@]56CCCN5C[C@H](F)C6)nc4c3F)ccc(F)c2s1` [Example 32, 4-(4-(bicyclo[1.1.1]pentan-1-ylamino)-6-chloro-8-fluoro-2-(((2R,7aS)-2-fluorotetrahydro-1H-pyrrolizin-7a(5H)-yl)methoxy)quinazolin-7-yl)-7-fluorobenzo[d]thiazol-2-amine], the IC50 was 21 nM.

Regarding `Nc1nc2c(-c3c(C(F)(F)F)cc4c(NC5CC6(COC6)C5)nc(OC[C@@]56CCCN5C[C@H](F)C6)nc4c3F)ccc(F)c2s1` [Example 23, 4-(4-((2-oxaspiro[3.3]heptan-6-yl)amino)-8-fluoro-2-(((2R,7aS)-2-fluorotetrahydro-1H-pyrrolizin-7a(5H)-yl)methoxy)-6-(trifluoromethyl)quinazolin-7-yl)-7-fluorobenzo[d]thiazol-2-amine], the IC50 stood at 23 nM.

`C[C@@]1(O)CCCN(c2nc(OC[C@@]34CCCN3C[C@H](F)C4)nc3c(F)c(-c4ccc(F)c5sc(N)nc45)c(C(F)(F)F)cc23)C1` [Example 80, (3R)-1-(7-(2-amino-7-fluorobenzo[d]thiazol-4-yl)-8-fluoro-2-(((2R,7aS)-2-fluorotetrahydro-1H-pyrrolizin-7a(5H)-yl)methoxy)-6-(trifluoromethyl)quinazolin-4-yl)-3-methylpiperidin-3-ol] had an IC50 of 17 nM.

For `Nc1nc2c(-c3c(C(F)(F)F)cc4c(N[C@H]5C[C@H](F)C5)nc(OC[C@@]56CCCN5C[C@H](F)C6)nc4c3F)ccc(F)c2s1` [Example 16, 7-fluoro-4-(8-fluoro-4-(((trans)-3-fluorocyclobutyl)amino)-2-(((2R,7aS)-2-fluorotetrahydro-1H-pyrrolizin-7a(5H)-yl)methoxy)-6-(trifluoromethyl)quinazolin-7-yl)benzo[d]thiazol-2-amine], the IC50 stood at 14 nM.

As to `Nc1nc2c(-c3c(C(F)(F)F)cc4c(N[C@H]5C[C@H]5F)nc(OC[C@@]56CCCN5C[C@H](F)C6)nc4c3F)ccc(F)c2s1` [Example 2, 7-fluoro-4-(8-fluoro-4-(((1S,2R)-2-fluorocyclopropyl)amino)-2-(((2R,7aS)-2-fluorotetrahydro-1H-pyrrolizin-7a(5H)-yl)methoxy)-6-(trifluoromethyl)quinazolin-7-yl)benzo[d]thiazol-2-amine], the IC50 came to 16 nM. This IC50 and that of the compound before are within 1.5-fold of each other.

For the compound `CC[C@H]1CCCN1c1nc(OC[C@@]23CCCN2C[C@H](F)C3)nc2c(F)c(-c3ccc(F)c4sc(N)nc34)c(C(F)(F)F)cc12` [Example 59, 4-(4-((S)-2-ethylpyrrolidin-1-yl)-8-fluoro-2-(((2R,7aS)-2-fluorotetrahydro-1H-pyrrolizin-7a(5H)-yl)methoxy)-6-(trifluoromethyl)quinazolin-7-yl)-7-fluorobenzo[d]thiazol-2-amine], the IC50 turned out to be 27 nM.

`CC1CC(C#N)CCN1c1nc(OC[C@@]23CCCN2C[C@H](F)C3)nc2c(F)c(-c3ccc(F)c4sc(N)nc34)c(C(F)(F)F)cc12` (relative stereo) [Example 74, 1-(7-(2-amino-7-fluorobenzo[d]thiazol-4-yl)-8-fluoro-2-(((2R,7aS)-2-fluorotetrahydro-1H-pyrrolizin-7a(5H)-yl)methoxy)-6-(trifluoromethyl)quinazolin-4-yl)-trans-2-methylpiperidine-4-carbonitrile] came in with an IC50 of 1.9 nM. Compared with the last compound, the IC50 is about 14-fold lower.

For `Cc1cc(N)nc(-c2c(Cl)cc3c(N4CC[C@@H](C#N)C[C@@H]4C)nc(OC[C@@]45CCCN4C[C@H](F)C5)nc3c2F)c1C(F)(F)F` (mixture of isomers) [Example 104, 1-(7-(6-amino-4-methyl-3-(trifluoromethyl)pyridin-2-yl)-6-chloro-8-fluoro-2-(((2R,7aS)-2-fluorotetrahydro-1H-pyrrolizin-7a(5H)-yl)methoxy)quinazolin-4-yl)-trans-2-methylpiperidine-4-carbonitrile], the IC50 is 7 nM. This IC50 is about 3.7-fold higher than that of the compound before.

In the case of `Nc1nc2c(-c3c(C(F)(F)F)cc4c(NC5C6CCCC65)nc(OC[C@@]56CCCN5C[C@H](F)C6)nc4c3F)ccc(F)c2s1` (stereo partly drawn) [Example 8, 4-(4-(bicyclo[3.1.0]hexan-6-ylamino)-8-fluoro-2-(((2R,7aS)-2-fluorotetrahydro-1H-pyrrolizin-7a(5H)-yl)methoxy)-6-(trifluoromethyl)quinazolin-7-yl)-7-fluorobenzo[d]thiazol-2-amine], the IC50 came out at 43 nM. Compared with the last compound, the IC50 is about 6.1-fold higher.

On to `Nc1nc2c(-c3c(C(F)(F)F)cc4c(N[C@H]5C[C@@H](CO)C5)nc(OC[C@@]56CCCN5C[C@H](F)C6)nc4c3F)ccc(F)c2s1` [Example 20, ((cis)-3-((7-(2-amino-7-fluorobenzo[d]thiazol-4-yl)-8-fluoro-2-(((2R,7aS)-2-fluorotetrahydro-1H-pyrrolizin-7a(5H)-yl)methoxy)-6-(trifluoromethyl)quinazolin-4-yl)amino)cyclobutyl)methanol], for which the IC50 was 7.9 nM.

Consider `CCC1CC1Nc1nc(OC[C@@]23CCCN2C[C@H](F)C3)nc2c(F)c(-c3ccc(F)c4sc(N)nc34)c(C(F)(F)F)cc12` (stereo partly shown) [Example 4], for which the IC50 is 29 nM.

`C[C@@H]1CCN(c2nc(OC[C@@]34CCCN3C[C@H](F)C4)nc3c(F)c(-c4ccc(F)c5sc(N)nc45)c(C(F)(F)F)cc23)C1` [Example 54, 7-fluoro-4-(8-fluoro-2-(((2R,7aS)-2-fluorotetrahydro-1H-pyrrolizin-7a(5H)-yl)methoxy)-4-((R)-3-methylpyrrolidin-1-yl)-6-(trifluoromethyl)quinazolin-7-yl)benzo[d]thiazol-2-amine] displayed an IC50 of 41 nM.

Consider `Cc1cc(N)nc(-c2c(Cl)cc3c(N4CCOC[C@@H]4C)nc(OC[C@@]45CCCN4C[C@H](F)C5)nc3c2F)c1C(F)(F)F` [Example 105, 6-(6-chloro-8-fluoro-2-(((2R,7aS)-2-fluorotetrahydro-1H-pyrrolizin-7a(5H)-yl)methoxy)-4-((S)-3-methylmorpholino)quinazolin-7-yl)-4-methyl-5-(trifluoromethyl)pyridin-2-amine], for which the IC50 was determined as 25 nM.

For `N#C[C@@H]1CCCN(c2nc(OC[C@@]34CCCN3C[C@H](F)C4)nc3c(F)c(-c4ccc(F)c5sc(N)nc45)c(C(F)(F)F)cc23)C1` [Example 76, (3R)-1-(7-(2-amino-7-fluorobenzo[d]thiazol-4-yl)-8-fluoro-2-(((2R,7aS)-2-fluorotetrahydro-1H-pyrrolizin-7a(5H)-yl)methoxy)-6-(trifluoromethyl)quinazolin-4-yl)piperidine-3-carbonitrile], the IC50 turned out to be 21 nM.

`Nc1nc2c(-c3c(C(F)(F)F)cc4c(N5CCC6(CCNC(=O)O6)CC5)nc(OC[C@@]56CCCN5C[C@H](F)C6)nc4c3F)ccc(F)c2s1` [Example 99, 9-(7-(2-amino-7-fluorobenzo[d]thiazol-4-yl)-8-fluoro-2-(((2R,7aS)-2-fluorotetrahydro-1H-pyrrolizin-7a(5H)-yl)methoxy)-6-(trifluoromethyl)quinazolin-4-yl)-1-oxa-3,9-diazaspiro[5.5]undecan-2-one] came in with an IC50 of 2.8 nM.

`CC[C@H]1COCCN1c1nc(OC[C@@]23CCCN2C[C@H](F)C3)nc2c(F)c(-c3cc(N)cc(Cl)c3C(F)(F)F)ncc12` [Example 116, 3-chloro-5-(4-((S)-3-ethylmorpholino)-8-fluoro-2-(((2R,7aS)-2-fluorotetrahydro-1H-pyrrolizin-7a(5H)-yl)methoxy)pyrido[4,3-d]pyrimidin-7-yl)-4-(trifluoromethyl)aniline] came in with an IC50 of 4.4 nM.

`CC1CC(C#N)CCN1c1nc(OC[C@@]23CCCN2C[C@H](F)C3)nc2c(F)c(-c3cc(N)cc(Cl)c3C(F)(F)F)ncc12` (stereo partly drawn) [Example 124, 1-(7-(5-amino-3-chloro-2-(trifluoromethyl)phenyl)-8-fluoro-2-(((2R,7aS)-2-fluorotetrahydro-1H-pyrrolizin-7a(5H)-yl)methoxy)pyrido[4,3-d]pyrimidin-4-yl)-2-methylpiperidine-4-carbonitrile] returned an IC50 of 15 nM.

In the case of `COCCN1CC2(CCN(c3nc(OC[C@@]45CCCN4C[C@H](F)C5)nc4c(F)c(-c5ccc(F)c6sc(N)nc56)c(C(F)(F)F)cc34)CC2)OC1=O` [Example 94, 8-(7-(2-amino-7-fluorobenzo[d]thiazol-4-yl)-8-fluoro-2-(((2R,7aS)-2-fluorotetrahydro-1H-pyrrolizin-7a(5H)-yl)methoxy)-6-(trifluoromethyl)quinazolin-4-yl)-3-(2-methoxyethyl)-1-oxa-3,8-diazaspiro[4.5]decan-2-one], the IC50 worked out at 2.5 nM. Against the preceding compound, the IC50 is about 6-fold lower.

For the compound `CC[C@@H]1COCCN1c1nc(OC[C@@]23CCCN2C[C@H](F)C3)nc2c(F)c(-c3cc(N)cc(Cl)c3C(F)(F)F)ncc12` [Example 117, 3-chloro-5-(4-((R)-3-ethylmorpholino)-8-fluoro-2-(((2R,7aS)-2-fluorotetrahydro-1H-pyrrolizin-7a(5H)-yl)methoxy)pyrido[4,3-d]pyrimidin-7-yl)-4-(trifluoromethyl)aniline], the IC50 was found to be 12 nM.
